Measured values as given in article PMC8766756, “Insights on Cancer Cell Inhibition, Subcellular Activities, and Kinase Profile of Phenylacetamides Pending 1H-Imidazol-5-One Variants” (Frontiers in Pharmacology, 2022).
Values after ≈ are worked out from the molar mass of the structure shown. “Also recorded” adds a separate entry of the source. Where two headings read alike, the source gives them in different places.

Assays:
[1] = tested on: ERK1/2 (T202/Y204, T185/Y187); assay: Human Phospho-Kinase Array in HL60 cells; type: cell-based
Excerpt: (§1) We also measured changes in kinase activities of some selected Ser/Thr kinases using the Human Phospho-Kinase Array® kit (R&D Systems) which encompasses phosphoprotein-specific capture antibodies spotted at a certain location (in duplicates) on a nitrocellulose membrane. The signal intensities, detected by a sandwich immunoassay, are proportional to the amount of each phosphokinase in the cell lysate (Figure 8).
(§2) FIGURE 8 Phosphokinase proteome profile of KIM-161 in HL60 cell line. (A) Cells lysates were prepared after 10 h treatment with KIM-161 and applied to the membranes prespotted with the different antibodies. […] The height of each bar represents the average intensity of certain protein signals in treated cells/untreated × 100. Therefore, the dotted line represents the control percentage (100%).
(§3) The phosphorylation profile of 48 kinases was performed using the Proteome Profiler Human Phospho-Kinase Array an antibody array kit, by R&D Systems (Minneapolis, MN, USA). Total protein was extracted from the cell lysates treated with 365 nM KIM-161 for 10 h using the lysis buffer provided in the kit and quantified using the Bio-Rad DC Protein Assay kit (USA). The nitrocellulose membrane set (A&B), pre-spotted with the capture antibodies, was first blocked with 1 ml of Array buffer 1 at RT for 1 h in an 8-well multi-dish on a rocking platform shaker. Approximately 600 µg of protein concentrate (<334 µL) was diluted in the Array buffer 1 to a final volume of 2 ml. 1 ml of the protein sample was added onto the membrane set and incubated overnight at 4°C on a rocking platform shaker. Subsequently, membranes were washed with 15 ml of 1× wash buffer thrice for 5 min at RT, and the excess buffer was completely drained. The membranes A&B were then incubated with appropriate detection antibody cocktails A&B that were reconstituted using the 1× Array buffer 2/3 for 2 h at RT. After the incubation was complete, the membranes were washed with 15 ml of 1× wash buffer thrice for 5 min at RT, and the excess buffer was completely drained. Streptavidin-HRP (1:2000), diluted in 1× Array buffer 2/3, was applied onto the membranes and incubated for 30 min at RT on a rocking platform shaker. The membranes were washed thrice, and Chemi Reagent 1&2 were applied in equal volumes for detection on C-DiGit®Blot Scanner (LI-COR Odyssey Imaging Systems, Lincoln, Nebraska, USA) using the Image Studio 5.0 software.

JNK 1/2/3 = assay: Human Phospho-Kinase Array in HL60 cells; type: cell-based
Excerpt: as §1, §2, §3

[2] = biological target: T1, human cytochrome P450 3A4 (Homo sapiens, UniProt P08684); assay: Inhibition assay of human CYP450 enzymes; type: in vitro ADME; conditions: testosterone substrate
T1 construct: purchased Fisher Scientific, Waltham, MA; host or cells: insect cells (Supersomes)
T1 sequence (P08684 whole entry): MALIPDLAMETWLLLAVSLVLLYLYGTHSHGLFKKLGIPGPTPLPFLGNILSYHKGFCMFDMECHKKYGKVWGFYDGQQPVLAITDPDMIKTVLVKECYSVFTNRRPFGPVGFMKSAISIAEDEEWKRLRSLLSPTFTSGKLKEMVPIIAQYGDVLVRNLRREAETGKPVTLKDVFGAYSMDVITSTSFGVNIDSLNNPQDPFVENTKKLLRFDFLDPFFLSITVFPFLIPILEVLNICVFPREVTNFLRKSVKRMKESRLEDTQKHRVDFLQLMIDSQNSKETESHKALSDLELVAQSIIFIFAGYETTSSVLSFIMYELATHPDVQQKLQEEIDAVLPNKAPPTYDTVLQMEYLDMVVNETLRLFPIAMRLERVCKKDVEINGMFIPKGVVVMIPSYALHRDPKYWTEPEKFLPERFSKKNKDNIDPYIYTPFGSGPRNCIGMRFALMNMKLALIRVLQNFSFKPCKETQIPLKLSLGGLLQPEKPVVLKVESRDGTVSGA
Experimental: (§4) KIM-161 was assessed for its ability to inhibit the three major human CYP450 enzymes: 3A4, 2D6, and 2C9. The assays were run in triplicate. The expressed enzymes in insect Supersomes (Fisher Scientific, Waltham, MA) were used to minimize nonspecific binding and membrane partitioning issues ([McMasters et al., 2007]). The 3A4 assay uses testosterone as a substrate, and the analysis was performed by LC/MS/MS on a Waters Xevo TQ instrument as described above, using positive electrospray ionization. The assay acceptance criterion was 20% for all standards and 25% for the LLOQ. The 2D6 and 2C9 assays use fluorescent substrates (3-[2-(N,N-diethylamino)ethyl]-7-methoxy-4-methylcoumarin for 2D6; 7-methoxy-4-(trifluromethyl)coumarin for 2C9) and were analyzed on an Envision plate reader. GraphPad® Prism v.5.04 was used for nonlinear fitting of data to generate IC50 values.

[3] = biological target: T2, human cytochrome P450 2D6 (Homo sapiens, UniProt P10635); assay: Inhibition assay of human CYP450 enzymes; type: in vitro ADME; conditions: fluorescent substrate
T2 construct: purchased Fisher Scientific, Waltham, MA; host or cells: insect cells (Supersomes)
T2 sequence (P10635 whole entry): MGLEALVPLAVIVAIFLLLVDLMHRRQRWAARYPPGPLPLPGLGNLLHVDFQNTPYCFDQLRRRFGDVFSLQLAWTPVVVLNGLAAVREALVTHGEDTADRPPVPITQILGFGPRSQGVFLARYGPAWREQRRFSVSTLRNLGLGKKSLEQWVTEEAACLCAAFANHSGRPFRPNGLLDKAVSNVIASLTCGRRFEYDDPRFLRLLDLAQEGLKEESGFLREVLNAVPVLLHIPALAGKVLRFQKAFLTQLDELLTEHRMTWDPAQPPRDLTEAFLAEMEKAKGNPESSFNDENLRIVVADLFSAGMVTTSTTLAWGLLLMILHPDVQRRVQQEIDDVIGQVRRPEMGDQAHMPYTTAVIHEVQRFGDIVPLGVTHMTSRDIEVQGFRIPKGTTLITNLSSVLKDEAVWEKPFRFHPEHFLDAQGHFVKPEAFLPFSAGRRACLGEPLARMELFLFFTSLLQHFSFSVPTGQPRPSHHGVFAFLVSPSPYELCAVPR
Experimental: as §4

[4] = biological target: T3, human cytochrome P450 2C9 (Homo sapiens, UniProt P11712); assay: Inhibition assay of human CYP450 enzymes; type: in vitro ADME; conditions: fluorescent substrate
T3 construct: purchased Fisher Scientific, Waltham, MA; host or cells: insect cells (Supersomes)
T3 sequence (P11712 whole entry): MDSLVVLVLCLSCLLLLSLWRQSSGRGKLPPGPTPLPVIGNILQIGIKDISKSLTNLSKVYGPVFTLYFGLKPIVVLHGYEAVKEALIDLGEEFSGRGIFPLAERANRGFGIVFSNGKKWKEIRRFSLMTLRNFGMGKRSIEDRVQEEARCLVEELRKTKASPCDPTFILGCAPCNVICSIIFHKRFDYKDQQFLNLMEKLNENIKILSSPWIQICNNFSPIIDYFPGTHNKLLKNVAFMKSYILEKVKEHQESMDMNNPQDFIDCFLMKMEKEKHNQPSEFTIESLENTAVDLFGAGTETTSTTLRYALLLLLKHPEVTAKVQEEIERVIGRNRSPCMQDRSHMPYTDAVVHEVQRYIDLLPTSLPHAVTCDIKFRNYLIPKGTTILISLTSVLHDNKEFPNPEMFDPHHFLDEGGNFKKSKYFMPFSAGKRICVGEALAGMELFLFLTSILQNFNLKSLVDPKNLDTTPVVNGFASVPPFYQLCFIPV
Experimental: as §4

HL60 cells = assay: Cell cycle analysis by flow cytometry; type: cell-based, human; conditions: HL60, 1 µM, 48 h, vs untreated control
Experimental: The cell cycle analysis of the HL60 cells after treatment was performed with 1 µM of KIM-161 by using flow cytometry.
The cells (3.5 × 10^5/well) were incubated with 1 µM 4c (KIM-161) at 37°C for 48 h. Subsequently, the cells were collected and washed twice with ice-cold PBS (1X). The washed cells were fixed on ice for 20 min using a fixation buffer containing paraformaldehyde. Hoechst 33342 (10 μg/ml; Thermo Fisher Scientific, Inc.) was used for staining. The cells were then incubated in the dark for 30 min on ice. A minimum total of 20,000 events were acquired using a BD FACSAria III flow cytometer. Flowlogic version 7.2.1 software (Inivai Technologies, Victoria, Australia) was used to obtain the percentages of cells in the G1, S, and G2/M phases in the singlet-gated population.

[5] = Maximum kinetic aqueous solubility; type: physicochemical; conditions: phosphate buffer, pH 7.4, aqueous buffer, kinetic from dmso stock
Experimental: Solubility assays were performed using the Millipore MultiScreen® HTS-PFC Filter Plates designed for the solubility assays (EMD Millipore, Billerica, MA). Assays were run in triplicate. The 96-well plates consist of two chambers separated by a filter. Liquid handling was performed using JANUS® Verispan and MTD workstations (Perkin Elmer, Waltham, MA). About 4 µL of the KIM-161 solution (10 mM in DMSO) was added to 196 µL of phosphate buffer (45 mM potassium phosphate, 45 mM sodium acetate, 45 mM ethanolamine, pH = 7.4) in the top chamber to give a final DMSO concentration of 2% and a theoretical drug concentration of 200 µM. The plates were gently shaken for 90 min and then subjected to vacuum. The insoluble drug was captured on the filter. 160 µL of the filtrate was transferred to 96-well Griener UV-Star® analysis plates (Sigma-Aldrich, St. Louis, MO) containing 40 µL of acetonitrile. The test compound concentration in the filtrate is measured by UV absorbance on a Spectromax® Plus microplate reader (Molecular Devices, Sunnyvale, CA) using SoftMax Pro Software v.5.4.5. The absorbances at five wavelengths (280, 300, 320, 340, and 360 nm) were summed to generate the UV signal. Standard curves were generated by adding 4 µL of five concentrations of the test compound in DMSO to 40 µL of acetonitrile in UV Star plates followed by 156 µL of the appropriate solubility medium. […]

[6] = ERK1/2 spot, HL60 cells, 10 h (KIM-161 365 nM)
[7] = JNK 1/2/3 spot, HL60 cells, 10 h (KIM-161 365 nM)

Structure (SMILES): COc1ccc(/C=C2\N=C(C)N(c3ccc(CC(=O)NCc4ccccc4)cc3)C2=O)cc1 [Compound 4c, (Z)-N-Benzyl-2-(4-(4-(4-methoxybenzylidene)-2-methyl-5-oxo-4,5-dihydro-1H-imidazol-1-yl)phenyl)acetamide]
- Normalized to HK [1, 6]: 0.0000
- Normalized x10K [1, 6]: 0.00
- Signal [1, 6]: 0.00
- change of ERK1/2 phosphokinase signal ([1]; HL60, 365 nM, 10 h, vs untreated, listed as KIM-161): strongly suppresses; also recorded: strong downregulation
- activity at 0.365 µM ([1]; Homo sapiens, HL-60, ERK1/2 spot, HL60 cells, 10 h (KIM-161 365 nM), untreated = 100, read-out: % Ctrl): 0%
- reduction of JNK1/2/3 activity (JNK 1/2/3; HL60, 365 nM, 10 h, vs untreated): 26.0%
- activity at 0.365 µM (JNK 1/2/3; Homo sapiens, HL-60, JNK 1/2/3 spot, HL60 cells, 10 h (KIM-161 365 nM), untreated = 100, read-out: % Ctrl): 74%
- Normalized to HK (JNK 1/2/3; [7]): 0.0031
- Normalized x10K (JNK 1/2/3; [7]): 31.34
- Signal (JNK 1/2/3; [7]): 11.01
- IC50 [2]: ≥ 10 µM
- IC50 [3]: ≥ 10 µM
- IC50 [4]: ≥ 10 µM
- Cell cycle distribution: G0/G1 phase (HL60 cells): decrease in the G0/G1 phase
- Cell cycle distribution: G2/M phase (HL60 cells): increased the population of cells in the G2/M phase
- Cell cycle distribution: PreG phase (HL60 cells): accumulate in PreG phase
- Cell cycle distribution: S phase (HL60 cells): no difference is seen in cell population in the S phase
- solubility at 90 min ([5]; Max solubility in 2% DMSO/PBS, kinetic, pH 7.4): 19.9 µM (≈ 8.75 µg/mL)
- solubility at 90 min ([5]; read-out: solubility): ~20 µM (≈ 8.79 µg/mL)
